Reference: patent publication US20110184018A1, “METHOD FOR TREATING PERIPHERAL NEUROPATHIC PAIN” (LOHOCLA RESEARCH CORPORATION, priority 2005, published 2011)

Tests used:
[1] = Plasma and brain levels after oral administration of DCUK-OEt; format: in vivo; settings: rat, 200 mg/kg DCUK-OEt emulsion by oral gavage
Method: Oral administration has been the major route of drug administration for the treatment of many diseases. […] Groups of rats were administered 200 mg/kg DCUK-OEt prepared as an emulsion in gelatin:canola oil (50:50) by oral gavage and sacrificed at 0.25, 0.5, 1, 1.5, 2, 4, 6, and 8 hours following administration, in order to collect the blood and brains for analysis. Plasma and brain levels of DCUKA and DCUK-OEt were analyzed by liquid chromatographic separation and mass spectrometric detection. Orally administered DCUK-OEt was converted to DCUKA by plasma and brain carboxylesterases. Peak levels of plasma DCUK-OEt were reached by about 1 hour post-administration, and fell to low levels by about 2 hours. DCUKA plasma levels peaked at about 2 hours and then fell off slowly over the next 4 hours. Brain DCUK-OEt levels peak at about 1 hour post-administration.
Oral administration. Following overnight food deprivation, groups of 3 rats were administered 200 mg/kg DCUK-OEt by oral gavage (40 mg/mL DCUK-OEt at 5 mL/kg body weight). Groups of rats were anesthetized and sacrificed by decapitation at 0.25, 0.5, 1, 1.5, 2, 4, 6, and 8 hours post-administration. Trunk blood was collected into tubes containing K2EDTA anticoagulant and brains were removed, washed thoroughly with 0.9% NaCl, and frozen on dry ice. Blood samples were centrifuged at 4000 rpm for 10 minutes. Plasma supernatant was removed and frozen at −80° C. until the time of the assay.
Liquid chromatographic-mass spectrometric determination of plasma and brain DCUKA and DCUK-OEt levels. Rat plasma sample preparation involved a simple protein precipitation procedure (100 μL plasma+250 μL acetonitrile containing 25 ng/mL of the internal standard, DCUK-OMe). After vortexing (5 minutes) and centrifugation (5000 g, 5 minutes, +4° C.), 200 μL of the supernatant was injected into the HPLC system and loaded onto the extraction column. Frozen brain tissue samples (about 0.5 g) were homogenized over liquid nitrogen using a mortar and pestle. The homogenized powder was transferred into the tubes containing 1.5 mL ice-cold 100% acetonitrile and 25 ng/mL DCUK-OMe (used as an internal standard). Following procedures were all performed on ice or at 4° C. The samples were further homogenized using an electric homogenizer for 30 seconds at 4° C. Subsequently, the tubes were placed into the ultrasonic bath for 30 minutes (on ice), and centrifuged afterwards at 1300 g for 10 minutes at 4° C. The supernatant was transferred into the HPLC tube. The pellet was re-extracted with 500 μL MeOH (containing 25 ng/mL DCUK-OMe), sonicated for 10 minutes, and centrifuged (10 minutes at 1300 g, 4° C.). The MeOH phase was combined with the acetonitrile solution from the first extraction step and 500 μL of the solution was directly injected into the HPLC system.
The two HPLC systems consisted of the following components (all series 1100, Agilent Technologies, Palo Alto, USA): HPLC I: G1312A binary pump, G1379A degasser; HPLC II: G1312A binary pump, and a G1316A column thermostat. A Sciex API 4000 triple-stage quadrupole mass spectrometer was used as detector (Applied Biosystems, Foster City, USA). The HPLC systems were connected via a 6-port column switching valve mounted on a step motor. The HPLC's switching valve and the mass spectrometer were controlled by the Analyst software (version 1.3.1., Applied Biosystems). […]

[2] = biological target: T1, cannabinoid receptor 1 (CB1) (Homo sapiens, UniProt P21554); test: Displacement of [3H]CP55940 from CB1 receptors expressed in HEK293 cells; format: binding; settings: [3H]CP55940 displacement, Cheng-Prusoff
T1 construct: expressed in transfected cells; host or cells: HEK293 cells
T1 sequence (P21554 whole entry, species assumed): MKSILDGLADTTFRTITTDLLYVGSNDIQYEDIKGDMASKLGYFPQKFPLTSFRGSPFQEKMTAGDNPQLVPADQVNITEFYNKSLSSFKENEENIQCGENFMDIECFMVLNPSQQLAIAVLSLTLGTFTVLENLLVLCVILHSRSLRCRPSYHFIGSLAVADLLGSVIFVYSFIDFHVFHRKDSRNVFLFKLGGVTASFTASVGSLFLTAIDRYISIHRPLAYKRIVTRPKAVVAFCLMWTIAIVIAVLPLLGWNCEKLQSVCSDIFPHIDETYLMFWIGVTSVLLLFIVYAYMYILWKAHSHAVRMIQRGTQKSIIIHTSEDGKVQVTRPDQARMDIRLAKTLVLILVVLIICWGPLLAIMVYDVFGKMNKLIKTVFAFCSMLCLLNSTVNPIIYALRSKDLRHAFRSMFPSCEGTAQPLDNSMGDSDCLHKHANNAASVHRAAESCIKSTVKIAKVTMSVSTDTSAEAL
Text: The cannabinoid receptor 1 (CB1) is a G-protein coupled receptor (GPCR), which can modulate the enzymatic activity of adenylyl cyclase (AC), inhibit calcium influx into neurons and increase neuronal potassium permeability. The CB1 receptors have been reported to be intimately involved in the progression and control of chronic pain. The CB1 receptors reportedly are involved in both the amelioration of anxiety and depression and may also be important in cognitive function and eating behavior. The interaction of a chemical entity with a CB1 receptor can be measured by the binding of selective radioligands to the native receptor or a CB1 receptor expressed in model cell systems. To ascertain the extent to which a non-radioactive ligand binds to a CB1 receptor the displacement of the radioactive CB1 selective ligand with DCUK-OEt was performed. The methods of assay and calculations for binding constants can be accessed, for example, on the PDSP website (pdsp(dot)med(dot)unc(dot)edu/indexR(dot)html). For binding of DCUK-OEt to the CB1 receptor, the displacement of the CB1 selective radioligand [^3H] CP55940 from CB1 receptors expressed in HEK293 cells was monitored. The log IC50 was determined from the displacement data, and the Ki values for DCUKA and DCUK-OEt were calculated using the Cheng-Prusoff equation.

time at which plasma level fell to low levels [1]	time of peak brain level ([1]; analyte = label)	SMILES	time of peak plasma level ([1]; analyte = label)	Ki [2] [µM]	brain level at about 8 hours post-administration ([1]; analyte DCUKA)
about 2 hours	about 1 hour	CCOC(=O)c1cc(NC(=O)N(c2ccccc2)c2ccccc2)c2c(Cl)cc(Cl)cc2n1 [DCUK-OEt, N,N-diphenyl-4-ureido-5,7-dichloro-2-carboxy quinoline ethyl ester]	about 1 hour	7.4	–
–	–	O=C(O)c1cc(NC(=O)N(c2ccccc2)c2ccccc2)c2c(Cl)cc(Cl)cc2n1 [DCUKA, N,N-diphenyl-4-ureido-5,7-dichloro-2-carboxyquinoline]	about 2 hour	> 10	still elevated
